Assays:
[1] = molecular target: E. coli DNA gyrase (Escherichia coli, UniProt P0AES4+P0AES6); format: biochemical
[2] = molecular target: S. aureus DNA gyrase (Staphylococcus aureus, UniProt P0A0K8+P20831); format: biochemical
S. aureus DNA gyrase, sequence (P20831 whole entry): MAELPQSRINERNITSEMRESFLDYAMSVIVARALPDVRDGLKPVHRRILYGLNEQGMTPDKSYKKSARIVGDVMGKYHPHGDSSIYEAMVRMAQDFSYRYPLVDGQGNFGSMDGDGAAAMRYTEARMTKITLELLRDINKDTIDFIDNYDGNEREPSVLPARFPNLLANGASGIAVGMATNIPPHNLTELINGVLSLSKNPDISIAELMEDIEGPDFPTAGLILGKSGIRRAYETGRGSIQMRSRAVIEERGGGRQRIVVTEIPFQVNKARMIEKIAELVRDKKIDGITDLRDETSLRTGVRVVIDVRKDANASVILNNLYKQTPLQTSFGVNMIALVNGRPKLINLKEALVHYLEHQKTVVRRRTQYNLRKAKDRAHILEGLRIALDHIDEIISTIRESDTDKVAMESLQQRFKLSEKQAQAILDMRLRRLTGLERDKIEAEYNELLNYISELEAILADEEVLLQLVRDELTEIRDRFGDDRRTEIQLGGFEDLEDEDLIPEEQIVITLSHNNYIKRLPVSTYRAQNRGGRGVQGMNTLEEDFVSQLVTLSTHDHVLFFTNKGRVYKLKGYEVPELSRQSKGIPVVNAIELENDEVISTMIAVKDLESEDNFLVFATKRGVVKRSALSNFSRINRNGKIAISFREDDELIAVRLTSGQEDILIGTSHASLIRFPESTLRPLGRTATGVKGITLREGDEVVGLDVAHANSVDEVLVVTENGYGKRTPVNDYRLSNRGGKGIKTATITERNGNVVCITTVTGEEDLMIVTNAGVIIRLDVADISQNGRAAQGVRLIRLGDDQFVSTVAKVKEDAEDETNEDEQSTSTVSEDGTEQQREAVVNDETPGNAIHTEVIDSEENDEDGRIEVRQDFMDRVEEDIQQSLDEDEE
S. aureus DNA gyrase, sequence (P0A0K8 whole entry): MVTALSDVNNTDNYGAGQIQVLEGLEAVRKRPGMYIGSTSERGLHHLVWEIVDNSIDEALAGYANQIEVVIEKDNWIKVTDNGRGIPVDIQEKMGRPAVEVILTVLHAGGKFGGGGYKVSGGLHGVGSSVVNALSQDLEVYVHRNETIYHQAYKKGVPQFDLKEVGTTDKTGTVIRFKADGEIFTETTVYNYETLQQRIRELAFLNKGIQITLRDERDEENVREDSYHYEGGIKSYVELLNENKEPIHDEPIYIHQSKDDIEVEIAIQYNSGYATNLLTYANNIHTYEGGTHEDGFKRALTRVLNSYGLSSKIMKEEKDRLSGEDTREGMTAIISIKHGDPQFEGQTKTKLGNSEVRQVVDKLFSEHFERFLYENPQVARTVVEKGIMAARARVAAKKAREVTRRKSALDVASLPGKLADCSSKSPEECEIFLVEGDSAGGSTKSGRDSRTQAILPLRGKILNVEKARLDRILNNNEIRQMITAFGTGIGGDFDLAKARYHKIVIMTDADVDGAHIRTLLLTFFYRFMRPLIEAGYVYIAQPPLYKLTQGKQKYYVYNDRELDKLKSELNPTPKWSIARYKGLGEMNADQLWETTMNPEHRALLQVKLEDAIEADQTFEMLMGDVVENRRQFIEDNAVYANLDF

E. coli DNA gyrase, sequence (P0AES4 whole entry, one chain of several): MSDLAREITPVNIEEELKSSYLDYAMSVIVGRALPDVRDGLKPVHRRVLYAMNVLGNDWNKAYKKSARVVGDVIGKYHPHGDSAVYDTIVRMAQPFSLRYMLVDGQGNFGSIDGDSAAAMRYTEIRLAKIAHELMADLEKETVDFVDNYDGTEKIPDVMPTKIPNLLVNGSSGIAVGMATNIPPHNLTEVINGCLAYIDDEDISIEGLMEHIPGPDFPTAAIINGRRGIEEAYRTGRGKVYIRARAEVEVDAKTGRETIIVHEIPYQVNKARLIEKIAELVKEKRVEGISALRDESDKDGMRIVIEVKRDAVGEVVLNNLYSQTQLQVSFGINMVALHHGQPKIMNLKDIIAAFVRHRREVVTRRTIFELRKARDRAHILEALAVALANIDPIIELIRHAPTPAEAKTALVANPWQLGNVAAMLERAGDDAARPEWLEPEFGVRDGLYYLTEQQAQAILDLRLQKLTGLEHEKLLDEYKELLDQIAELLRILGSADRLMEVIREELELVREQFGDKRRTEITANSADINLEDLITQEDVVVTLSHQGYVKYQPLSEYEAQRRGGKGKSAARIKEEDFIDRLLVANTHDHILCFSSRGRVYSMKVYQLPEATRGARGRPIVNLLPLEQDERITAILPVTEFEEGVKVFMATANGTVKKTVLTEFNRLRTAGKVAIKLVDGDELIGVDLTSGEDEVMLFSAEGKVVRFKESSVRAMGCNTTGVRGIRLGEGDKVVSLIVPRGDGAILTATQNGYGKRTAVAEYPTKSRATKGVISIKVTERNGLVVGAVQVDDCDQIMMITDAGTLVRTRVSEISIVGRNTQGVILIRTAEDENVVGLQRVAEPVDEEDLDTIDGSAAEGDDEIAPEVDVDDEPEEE

SMILES	E. coli % inhibition DNA gyrase [1]	S. aureus % inhibition DNA gyrase [2]
O=c1oc2ccccc2c2[nH]c(CNCC3CCN(c4nccc5ccc(F)cc45)C3)cc12 (single isomer, unassigned) [Compound 180, 2-[({[1-(7-fluoroisoquinolin-1-yl)pyrrolidin-3-yl]methyl}amino)methyl][1]benzopyrano[4,3-b]pyrrol-4(1H)-one]	58%	90%
O=c1oc2ccccc2c2[nH]c(CNCC3CN(c4nccc5ccc(F)cc45)CCO3)cc12 (single isomer, unassigned) [Compound 182, 2-[({[4-(7-fluoroisoquinolin-1-yl)morpholin-2-yl]methyl}amino)methyl][1]benzopyrano[4,3-b]pyrrol-4(1H)-one]	61%	92%

From patent US10640488B2, “Antibacterial compounds” (AZIENDE CHIMICHE RIUNITE ANGELINI FRANCESCO A.C.R.A.F. …, priority 2016, dated 2020)
